In ChEMBL document CHEMBL3885881, “DrugMatrix”:

Species: Rattus norvegicus
Assay: DrugMatrix - Regimen: Daily Repeat
Format: toxicity, organism-based, Sprague-Dawley
Design: regimen Daily Repeat, gender Male, age 6-8 weeks
Settings: in vivo, po, route oral GAVAGE, […]; for ABSOLUTE BASOPHIL / ABSOLUTE EOSINOPHIL / ABSOLUTE LYMPHOCYTE / ABSOLUTE MONOCYTE / ABSOLUTE SEGMENTED NEUTROPHIL / BASOPHIL / EOSINOPHIL / ERYTHROCYTE COUNT / HEMATOCRIT / HEMOGLOBIN / LEUKOCYTE COUNT / LYMPHOCYTE / MEAN CORPUSCULAR HEMOGLOBIN / MEAN CORPUSCULAR HEMOGLOBIN CONCENTRATION / MEAN CORPUSCULAR VOLUME / MONOCYTE / NEUTROPHIL / NUCLEATED RED BLOOD CELLS / PLATELET COUNT: tissue Blood; for ALANINE AMINOTRANSFERASE / ALBUMIN / ALKALINE PHOSPHATASE / ASPARTATE AMINOTRANSFERASE / BLOOD UREA NITROGEN / CARBON DIOXIDE / CHLORIDE / CHOLESTEROL / CREATININE / GLUCOSE / LACTATE DEHYDROGENASE / LIPASE / PHOSPHORUS / POTASSIUM / SODIUM / TOTAL BILIRUBIN / TOTAL PROTEIN / URIC ACID: tissue Plasma
[1] = 0 mg/kg, 72 h, dose level Control, time 3 day
[2] = 0 mg/kg, 120 h, dose level Control, time 5 day
[3] = 250 mg/kg, 72 h, dose level Low, time 3 day

## CC(C)Cc1ccc(CC(=O)O)cc1 [IBUFENAC]
[1]
  ABSOLUTE BASOPHIL: 0 CELLS/uL
  ABSOLUTE EOSINOPHIL: 255.83 CELLS/uL
  ABSOLUTE LYMPHOCYTE: 11617.83 CELLS/uL
  ABSOLUTE MONOCYTE: 307.5 CELLS/uL
  ABSOLUTE SEGMENTED NEUTROPHIL: 1902.17 CELLS/uL
  BASOPHIL: 0%
  EOSINOPHIL: 1.83%
  ERYTHROCYTE COUNT: 5.58 x10E6/uL
  HEMATOCRIT: 33.62%
  HEMOGLOBIN: 12.42 G/DL
  LEUKOCYTE COUNT: 14.08 x10E3/uL
  LYMPHOCYTE: 82.67%
  MEAN CORPUSCULAR HEMOGLOBIN: 22.32 pg
  MEAN CORPUSCULAR HEMOGLOBIN CONCENTRATION: 36.98 G/DL
  MEAN CORPUSCULAR VOLUME: 60.4 fL
  MONOCYTE: 2.17%
  NEUTROPHIL: 13.33%
  NUCLEATED RED BLOOD CELLS: 0 /100WBC
  PLATELET COUNT: 1154.67 x10E3/uL
  ALANINE AMINOTRANSFERASE: 64.67 u/L
  ALBUMIN: 4.18 G/DL
  ALKALINE PHOSPHATASE: 382.67 u/L
  ASPARTATE AMINOTRANSFERASE: 123.17 u/L
  BLOOD UREA NITROGEN: 17.67 mg/dL
  CARBON DIOXIDE: 24.33 mmol/L
  CHLORIDE: 101.67 MEQ/L
  CHOLESTEROL: 76.5 mg/dL
  CREATININE: 0.2 mg/dL
  GLUCOSE: 175.33 mg/dL
  LACTATE DEHYDROGENASE: 331 u/L
  LIPASE: 10.17 u/L
  PHOSPHORUS: 12.77 mg/dL
  POTASSIUM: 6.65 MEQ/L
  SODIUM: 145.8 MEQ/L
  TOTAL BILIRUBIN: 0.2 mg/dL
  TOTAL PROTEIN: 6.07 G/DL
  URIC ACID: 1.78 mg/dL
[2]
  ABSOLUTE BASOPHIL: 0 CELLS/uL
  ABSOLUTE EOSINOPHIL: 155.33 CELLS/uL
  ABSOLUTE LYMPHOCYTE: 12695.83 CELLS/uL
  ABSOLUTE MONOCYTE: 475.67 CELLS/uL
  ABSOLUTE SEGMENTED NEUTROPHIL: 1989.83 CELLS/uL
  BASOPHIL: 0%
  EOSINOPHIL: 1%
  ERYTHROCYTE COUNT: 5.75 x10E6/uL
  HEMATOCRIT: 34.98%
  HEMOGLOBIN: 12.73 G/DL
  LEUKOCYTE COUNT: 15.32 x10E3/uL
  LYMPHOCYTE: 83%
  MEAN CORPUSCULAR HEMOGLOBIN: 22.17 pg
  MEAN CORPUSCULAR HEMOGLOBIN CONCENTRATION: 36.4 G/DL
  MEAN CORPUSCULAR VOLUME: 60.92 fL
  MONOCYTE: 3%
  NEUTROPHIL: 13%
  NUCLEATED RED BLOOD CELLS: 0 /100WBC
  PLATELET COUNT: 1081.33 x10E3/uL
  ALANINE AMINOTRANSFERASE: 55 u/L
  ALBUMIN: 4.12 G/DL
  ALKALINE PHOSPHATASE: 354.67 u/L
  ASPARTATE AMINOTRANSFERASE: 91 u/L
  BLOOD UREA NITROGEN: 15 mg/dL
  CARBON DIOXIDE: 27.17 mmol/L
  CHLORIDE: 100.5 MEQ/L
  CHOLESTEROL: 71.5 mg/dL
  CREATININE: 0.18 mg/dL
  GLUCOSE: 169.17 mg/dL
  LACTATE DEHYDROGENASE: 324 u/L
  LIPASE: 10.5 u/L
  PHOSPHORUS: 12.07 mg/dL
  POTASSIUM: 6.58 MEQ/L
  SODIUM: 141.92 MEQ/L
  TOTAL BILIRUBIN: 0.12 mg/dL
  TOTAL PROTEIN: 5.88 G/DL
  URIC ACID: 1.6 mg/dL
[3]
  ABSOLUTE BASOPHIL: 0 CELLS/uL
  ABSOLUTE EOSINOPHIL: 268.67 CELLS/uL
  ABSOLUTE LYMPHOCYTE: 13501.33 CELLS/uL
  ABSOLUTE MONOCYTE: 489 CELLS/uL
  ABSOLUTE SEGMENTED NEUTROPHIL: 2041 CELLS/uL
  BASOPHIL: 0%
  EOSINOPHIL: 1.67%
  ERYTHROCYTE COUNT: 5.57 x10E6/uL
  HEMATOCRIT: 33.83%
  HEMOGLOBIN: 12.4 G/DL
  LEUKOCYTE COUNT: 16.3 x10E3/uL
  LYMPHOCYTE: 83%
  MEAN CORPUSCULAR HEMOGLOBIN: 22.23 pg
  MEAN CORPUSCULAR HEMOGLOBIN CONCENTRATION: 36.67 G/DL
  MEAN CORPUSCULAR VOLUME: 60.7 fL
  MONOCYTE: 3%
  NEUTROPHIL: 12.33%
  NUCLEATED RED BLOOD CELLS: 0 /100WBC
  PLATELET COUNT: 1296 x10E3/uL
  ALANINE AMINOTRANSFERASE: 64.67 u/L
  ALBUMIN: 4.3 G/DL
  ALKALINE PHOSPHATASE: 362.33 u/L
  ASPARTATE AMINOTRANSFERASE: 94.67 u/L
  BLOOD UREA NITROGEN: 15.67 mg/dL
  CARBON DIOXIDE: 26.67 mmol/L
  CHLORIDE: 103 MEQ/L
  CHOLESTEROL: 79.33 mg/dL
  CREATININE: 0.15 mg/dL
  GLUCOSE: 164.67 mg/dL
  LACTATE DEHYDROGENASE: 128.67 u/L
  LIPASE: 9.67 u/L
  PHOSPHORUS: 11.4 mg/dL
  POTASSIUM: 6.53 MEQ/L
  SODIUM: 146.97 MEQ/L
  TOTAL BILIRUBIN: 0.17 mg/dL
  TOTAL PROTEIN: 6.03 G/DL
  URIC ACID: 1.43 mg/dL
